Laboratory results taken from ChEMBL document CHEMBL5370624 (J Med Chem, 2023).
Activity calls are given as the source filed them. The calls are words filed in the database; no cut-off is given here.

Legend:
Toll-like receptor 4 [1] = target: T1, Toll-like receptor 4 (Homo sapiens, UniProt O00206); experiment: Agonist activity at TLR4 in human PBMC cells assessed as induction of RANTES release incubated for 20 hrs by ELISA; format: cell-based
[2] = Aqueous stability of the compound assessed as drug degradation at 40 degreeC and measured after 3 months by LC-MS analysis; format: physicochemical; conditions: buffer, 2190 h
Toll-like receptor 4 [3] = target: T1, Toll-like receptor 4; experiment: Agonist activity at TLR4 in human PBMC cells assessed as induction of IL-1beta release incubated for 20 hrs by ELISA; format: cell-based
Mus musculus [4] = experiment: Immuno-adjuvant activity in H3N2-split A/Victoria/210/2009 influenza virus-immunized BALB/c mouse model assessed as increase in influenza specific serum IgG2a titer level at 0.001 to 0.1 ug,IM administered on day 0 and 14 and measured after 28 days by ELISA; format: functional, organism-based; conditions: dose 0.001-0.1 µg, time 28.0 day
Toll-like receptor 4 [5] = target: T1, Toll-like receptor 4; experiment: Agonist activity at TLR4 in human PBMC cells assessed as induction of MIP-1beta release incubated for 20 hrs by ELISA; format: cell-based
Mus musculus [6] = experiment: Immuno-adjuvant activity in H3N2-split A/Victoria/210/2009 influenza virus-immunized BALB/c mouse model assessed as increase in influenza specific serum IgG titer level at 0.001 to 0.1 ug,IM administered on day 0 and 14 and measured after 28 days by ELISA; format: functional, organism-based; conditions: dose 0.001-0.1 µg, time 28.0 day
Toll-like receptor 4 [7] = target: T2, Toll-like receptor 4 (Mus musculus, UniProt Q9QUK6); experiment: Agonist activity at mouse TLR4 in human HEK-Blue mTLR4 cells assessed as NF-kappaB activation incubated for 48 hrs by SEAP reporter gene based Quanti-blue assay; format: cell-based
T2 sequence (Q9QUK6 whole entry): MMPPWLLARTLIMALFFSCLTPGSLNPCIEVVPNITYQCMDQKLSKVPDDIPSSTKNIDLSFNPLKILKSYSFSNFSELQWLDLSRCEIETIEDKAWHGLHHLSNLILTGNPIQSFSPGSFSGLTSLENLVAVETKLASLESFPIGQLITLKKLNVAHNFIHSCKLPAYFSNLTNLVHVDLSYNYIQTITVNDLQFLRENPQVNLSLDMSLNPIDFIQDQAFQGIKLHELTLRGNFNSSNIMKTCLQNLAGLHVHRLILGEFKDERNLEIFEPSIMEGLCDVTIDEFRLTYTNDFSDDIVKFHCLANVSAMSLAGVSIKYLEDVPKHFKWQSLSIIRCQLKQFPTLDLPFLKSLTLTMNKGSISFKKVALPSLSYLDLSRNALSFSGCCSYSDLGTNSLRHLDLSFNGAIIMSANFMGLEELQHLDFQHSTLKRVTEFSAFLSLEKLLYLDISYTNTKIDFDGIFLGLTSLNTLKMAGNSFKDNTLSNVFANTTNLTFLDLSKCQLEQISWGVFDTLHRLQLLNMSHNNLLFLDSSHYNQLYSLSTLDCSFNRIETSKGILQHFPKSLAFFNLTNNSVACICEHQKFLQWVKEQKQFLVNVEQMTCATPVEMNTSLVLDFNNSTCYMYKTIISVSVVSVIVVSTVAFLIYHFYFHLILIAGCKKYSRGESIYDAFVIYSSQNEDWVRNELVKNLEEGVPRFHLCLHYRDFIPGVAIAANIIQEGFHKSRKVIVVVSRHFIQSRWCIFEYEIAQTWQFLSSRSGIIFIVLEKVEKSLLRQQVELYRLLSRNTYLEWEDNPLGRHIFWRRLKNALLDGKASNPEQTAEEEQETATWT

Toll-like receptor 4 [8] = target: T1, Toll-like receptor 4; experiment: Agonist activity at TLR4 in human MONO-MAC-6 cells assessed as induction of MIP-1beta release incubated for 24 hrs by ELISA; format: cell-based
Mus musculus [9] = experiment: Immuno-adjuvant activity in H3N2-A/HK/68 influenza virus-immunized BALB/c mouse model assessed as increase in survival rate at 10 ug,INH administered 48hrs prior to influenza challenge and measured after 18 days; format: functional; conditions: dose 10 µg, time 18 day
Toll-like receptor 4 [10] = target: T1, Toll-like receptor 4; experiment: Agonist activity at human TLR4 in human HEK-Blue hTLR4 cells assessed as NF-kappaB activation incubated for 48 hrs by SEAP reporter gene based Quanti-blue assay; format: cell-based
[11] = Toxicity in H3N2-A/HK/68 influenza virus-immunized BALB/c mouse model assessed as change in body temperature at 1 to 10 ug,INH administered 48hrs prior to influenza challenge and measured after 18 days; conditions: in vivo, inhaled_or_intranasal, 432 h, dose 1-10 µg, time 18 day
[12] = Toxicity in H3N2-A/HK/68 influenza virus-immunized BALB/c mouse model assessed as body weight change at 1 to 10 ug,INH administered 48hrs prior to influenza challenge and measured after 18 days; conditions: in vivo, inhaled_or_intranasal, 432 h, dose 1-10 µg, time 18 day
[13] = Toxicity in H3N2-A/HK/68 influenza virus-immunized BALB/c mouse model assessed as disease index at 1 to 10 ug,INH administered 48hrs prior to influenza challenge and measured after 18 days; conditions: in vivo, inhaled_or_intranasal, 432 h, dose 1-10 µg, time 18 day
[14] = Toxicity in H3N2-split A/Victoria/210/2009 influenza virus-immunized BALB/c mouse model assessed as reactogenicity at 0.001 to 0.1 ug,IM administered on day 0 and 14 and measured after 28 days; conditions: in vivo, 672 h, dose 0.001-0.1 µg, time 28 day
Mus musculus [15] = organism: Mus musculus; experiment: Immuno-adjuvant activity in H3N2-split A/Victoria/210/2009 influenza virus-immunized BALB/c mouse model assessed as increase in influenza specific serum IgG titer level at 0.001 to 0.1 ug,IM and measured after 14 days by ELISA; format: functional, organism-based; conditions: dose 0.001-0.1 µg, time 14.0 day
Mus musculus [16] = experiment: Immuno-adjuvant activity in H3N2-A/HK/68 influenza virus-immunized BALB/c mouse model assessed as increase in survival rate at 1 ug,INH administered 48hrs prior to influenza challenge and measured after 18 days; format: functional; conditions: dose 1 µg, time 18 day
[17] = Toxicity in H3N2-split A/Victoria/210/2009 influenza virus-immunized BALB/c mouse model assessed as abnormality at 0.001 to 0.1 ug,IM administered on day 0 and 14 and measured after 28 days; conditions: in vivo, 672 h, dose 0.001-0.1 µg, time 28 day
Mus musculus [18] = organism: Mus musculus; experiment: Immuno-adjuvant activity in H3N2-split A/Victoria/210/2009 influenza virus-immunized BALB/c mouse model assessed as increase in influenza specific serum IgG1 titer level at 0.001 to 0.1 ug,IM and measured after 14 days by ELISA; format: functional, organism-based; conditions: dose 0.001-0.1 µg, time 14.0 day
Toll-like receptor 4 [19] = target: T2, Toll-like receptor 4; experiment: Agonist activity at TLR4 in mouse RAW264.7 cells assessed as induction of MIP-1beta release incubated for 24 hrs by ELISA; format: cell-based
Toll-like receptor 4 [20] = target: T1, Toll-like receptor 4; experiment: Agonist activity at TLR4 in human PBMC cells assessed as induction of TNFalpha release incubated for 20 hrs by ELISA; format: cell-based
Mus musculus [21] = experiment: Immuno-adjuvant activity in H3N2-split A/Victoria/210/2009 influenza virus-immunized BALB/c mouse model assessed as increase in influenza specific serum IgG1 titer level at 0.001 to 0.1 ug,IM administered on day 0 and 14 and measured after 28 days by ELISA; format: functional, organism-based; conditions: dose 0.001-0.1 µg, time 28.0 day

T1 sequence (O00206 whole entry): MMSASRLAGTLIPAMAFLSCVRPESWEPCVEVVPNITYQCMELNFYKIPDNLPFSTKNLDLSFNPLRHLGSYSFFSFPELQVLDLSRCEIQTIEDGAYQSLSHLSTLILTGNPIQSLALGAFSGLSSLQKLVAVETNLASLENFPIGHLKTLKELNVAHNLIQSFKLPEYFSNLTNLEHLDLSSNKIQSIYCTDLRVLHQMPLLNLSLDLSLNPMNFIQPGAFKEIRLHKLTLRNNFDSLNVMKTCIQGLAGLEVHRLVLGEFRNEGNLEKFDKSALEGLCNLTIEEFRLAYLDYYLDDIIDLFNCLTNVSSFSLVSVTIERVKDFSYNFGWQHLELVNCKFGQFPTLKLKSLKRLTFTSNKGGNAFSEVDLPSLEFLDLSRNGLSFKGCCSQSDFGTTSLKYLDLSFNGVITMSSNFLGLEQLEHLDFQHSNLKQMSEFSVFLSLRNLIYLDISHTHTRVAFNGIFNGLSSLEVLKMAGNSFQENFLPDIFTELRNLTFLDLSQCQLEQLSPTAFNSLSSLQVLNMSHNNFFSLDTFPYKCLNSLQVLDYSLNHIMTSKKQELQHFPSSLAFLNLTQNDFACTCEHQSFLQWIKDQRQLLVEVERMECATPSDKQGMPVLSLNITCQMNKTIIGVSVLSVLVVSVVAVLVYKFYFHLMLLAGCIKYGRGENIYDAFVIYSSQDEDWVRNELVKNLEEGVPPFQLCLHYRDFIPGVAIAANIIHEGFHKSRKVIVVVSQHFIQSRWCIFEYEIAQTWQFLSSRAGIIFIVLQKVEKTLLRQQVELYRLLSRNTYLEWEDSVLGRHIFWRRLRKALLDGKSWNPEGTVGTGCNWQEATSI

## CCCCCCCCCCC[C@H](CC(=O)N[C@H]1[C@H](OC[C@H](NC(=O)C[C@@H](CCCCCCCCCCC)OCCCCCCCCCC)C(=O)O)O[C@H](CO)[C@@H](OP(=O)(O)O)[C@@H]1OC(=O)C[C@@H](CCCCCCCCCCC)OCCCCCCCCCC)OCCCCCCCCCC
Toll-like receptor 4 [1]
  EC50: 0.014 nM
[2]
  Stability: Stable
Toll-like receptor 4 [3]
  EC50: 0.028 nM
Mus musculus [4]
  Activity: Active
Toll-like receptor 4 [5]
  EC50: 0.01 nM
Mus musculus [6]
  Activity: Active
Toll-like receptor 4 [7]
  EC50: 0.005 nM
Toll-like receptor 4 [8]
  EC50: 0.06 nM
Mus musculus [9]
  Survival: 100%
Toll-like receptor 4 [10]
  EC50: 0.93 nM
[11]
  Activity: Non-Toxic
[12]
  Activity: Non-Toxic
[13]
  Activity: Non-Toxic
[14]
  Activity: Non-Toxic
Mus musculus [15]
  Activity: Dose-Dependent Effect
Mus musculus [16]
  Survival: 60%
[17]
  Activity: Non-Toxic
Mus musculus [18]
  Activity: Dose-Dependent Effect
Toll-like receptor 4 [19]
  EC50: 0.015 nM
Toll-like receptor 4 [20]
  EC50: 0.26 nM
Mus musculus [21]
  Activity: Active
